Results published in article PMC5576140 (Antiviral research, 2017).
Converted amounts (≈) assume the structure as drawn. Like-named read-outs stand apart in the source and are kept apart here.

Assays:
HIV-1 X4LAI.04 = assay: HIV-1 inhibition in MT-4 cell cultures; type: cell-based; conditions: read-out: EC50 (MT-4)
[1] = Viability assay in MT-4 cell cultures; type: cell-based; conditions: human, MT-4 cells
[2] = type: in vitro ADME; conditions: for stability in human blood serum: 15 h; for hydrolysis products found in human blood serum: HPLC-HRMS
[3] = Chemical stability at pH 2.2, 7.4 and 9.0; type: physicochemical; conditions: pH 9.0 (glycine+NaOH)
M. tuberculosis H37Rv = assay: Anti-TB activity, growth in Middlebrook 7H9 medium, BACTEC MGIT960; type: cell-based; conditions: growth inhibition not less than 99%
M. tuberculosis MS-115 = assay: as above; type: cell-based; conditions: clinical MDR strain
[4] = MT-4 cell cultures, HIV-1 X4LAI.04, 3 days, p24gag
[5] = growth inhibition not less than 99%
[6] = value in brackets, same MIC in μM

| Molecule | EC50 (HIV-1 X4LAI.04; Human immunodeficiency virus 1, MT4, 72 h) [nM] | CC50 [1] [µM] | T1/2 in human blood serum [2] [min] | EC50 (HIV-1 X4LAI.04; [4]) [nM] | stability to chemical hydrolysis [3] | stability in human blood serum [2] | MIC (99) M.tuberculosis H37Rv (M. tuberculosis H37Rv) [µg/mL] | MIC (99) M.tuberculosis MS-115 (M. tuberculosis MS-115; [5]) [µg/mL] | MIC (99) M.tuberculosis MS-115 (M. tuberculosis MS-115; [6]) [µM] | hydrolysis products found in human blood serum [2] |
| --- | --- | --- | --- | --- | --- | --- | --- | --- | --- | --- |
| Cc1cn([C@H]2C[C@H](N=[N+]=[N-])[C@@H](CO)O2)c(=O)[nH]c1=O [AZT, 3′-azido-3′-deoxythymidine, reference compound] | 30 | > 100 | – | – | – | – | – | – | – | – |
| Cc1cn([C@H]2C[C@H](O)[C@@H](COP(=O)(O)O)O2)c(=O)[nH]c1=O [TMP, reference compound] | – | – | 20 | – | – | – | – | – | – | – |
| [AZT]-N3-propyl-N3-[1-N-[4′-(o,o-dimethylbenzyl)cyclopent-2′-enyl]uracil] [Compound 4] | – | – | – | 19800 | stable | only slight debenzoylation at the carbocyclic fragment | – | – | – | – |
| CCCCCCCCCCc1cn(Cc2cn([C@H]3C[C@H](OC(=O)OC[C@H]4O[C@@H](n5cc(C)c(=O)[nH]c5=O)C[C@@H]4N=[N+]=[N-])[C@@H](CO)O3)c(=O)[nH]c2=O)nn1 [Compound 2, 3′-O-[AZT-carbonyl]-5-[(4-decyl-1,2,3-triazol-1-yl)methyl]-2′-deoxyuridine] | – | – | – | 70 | – | – | 10 (≈ 13.5 µM) | 20 | 27 | both AZT and dU^R derivative |
| CCCCCCCCCCc1cn(Cc2cn([C@H]3C[C@H](OC(=O)OC[C@H]4O[C@@H](n5cc(C)c(=O)[nH]c5=O)C[C@@H]4N=[N+]=[N-])[C@@H](COC(=O)OC[C@H]4O[C@@H](n5cc(C)c(=O)[nH]c5=O)C[C@@H]4N=[N+]=[N-])O3)c(=O)[nH]c2=O)nn1 [Compound 3, 3′,5′-di-O-[AZT-carbonyl]-5-[(4-decyl-1,2,3-triazol-1-yl)methyl]-2′-deoxyuridine] | – | – | – | 80 | – | – | 20 (≈ 19.3 µM) | 10 | 9.7 | 1, 2, AZT, and dU^R |
| CCCCOc1ccc(Nc2cn(C3C=CC(O)C3)c(=O)n(CCCn3c(=O)c(C)cn(C4CC(N=[N+]=[N-])C(CO)O4)c3=O)c2=O)cc1 (stereo not drawn) [Compound 5, [AZT]-N3-propyl-N3-[1-N-(4′-hydroxycyclopent-2′-enyl)-5-(p-butoxyphenylamino)]uracil] | – | – | – | 12900 | stable | stable | > 50 | 50 | 75 | – |
| CCCCCCCCCCc1cn(Cc2cn([C@H]3C[C@H](O)[C@@H](COC(=O)OC[C@H]4O[C@@H](n5cc(C)c(=O)[nH]c5=O)C[C@@H]4N=[N+]=[N-])O3)c(=O)[nH]c2=O)nn1 [Compound 1, 5′-O-[AZT-carbonyl]-5-[(4-decyl-1,2,3-triazol-1-yl)methyl]-2′-deoxyuridine] | – | – | – | 390 | – | – | 50 (≈ 67.3 µM) | 50 | 67 | both AZT and dU^R derivative |
